From patent publication US20250057772A1, “ORAL DOSAGE FORM WITH IONICALLY CHARGEABLE HYDROGEL FOR DELIVERY OF ACTIVE AGENT” (Entrega Inc., priority 2022, published 2025)

What was measured:
[1] = Evans Blue exclusion procedure; format: physicochemical; details: 0.125 mg/mL Evans Blue in FASSIF buffer pH 7, hydrogel #12.035 for 40, 60, 80, 90% fluid uptake; p<0.001 vs no hydrogel
Description: Commercially obtained Evan's blue dye was used as a surrogate marker for an anionic drug in hydrogel testing. It has a molecular weight of 961.8 g/mole and has four negative charges at pH 7 due to four sulfonate groups in the structure. Its visible light absorbance at 605 nm provides an easy way to monitor the concentration of the dye when exposed to the hydrogel in solution.
FASSIF buffer was created by adding 41.65 g of FASSIF buffer concentrate (Biorelevant Media, code FaSSIF) to 961.1 g DI water and stirred until completely mixed. Evans Blue solution was created by adding Evans Blue to approximately half of the FASSIF solution such that the final concentration of the media is 0.125 mg/mL Evans Blue.
5 mL of Evans Blue solution was added to a 15 mL centrifuge tube (EB Tube). 5 mL of FASSIF buffer (without Evans Blue) was added to another 15 mL tube (Background Tube). 200 mg of sub-63 um hydrogel #12.035 was added to both tubes. Vortexed tubes until fully mixed and placed both tubes on rocker plate for 15 minutes. After 15 minutes, both tubes were centrifuged at 3000 g for 1 minute. (N=3) 20 μL samples were extracted from the supernatant of both tubes and diluted into 180 μL of DI water in 96-well UV-clear plate. […] The plate was read for absorbance at 605 nm.
The absorbance reading samples from each group were averaged. […]

[2] = Exclusion or binding of ionic agents by Hydrogel #3.02, exterior fluid concentration by UV absorbance; format: physicochemical
Method: Sodium caprate (sodium decanoate) is a known intestinal permeation enhancer with a negative charge (negative charge on the caprate). Sodium caprate (280 mg) was dissolved in 5 mL of modified pH 7 FASSIF buffer.
The intestinal permeation enhancer, sodium caprate (280 mg) was added.
Octreotide (as octreotide acetate) is an FDA approved therapeutic peptide with a molecular weight of 1019 g/mole and a net positive charge at pH below 8 (isoelectric point of octreotide=8.5). Octreotide (5 mg) was dissolved in 5 mL of modified FASSIF buffer at pH 7 (resulting in a starting concentration of 1 mg/mL).
Lanreotide is an FDA approved therapeutic peptide with a molecular weight of 1096 g/mole and a net positive charge at pH below 8. Lanreotide (5 mg) was dissolved in 5 mL of modified FASSIF buffer at pH 7.
Lanreotide is an FDA approved therapeutic peptide with a molecular weight of 1096 g/mole and a net positive charge at pH below 8. Lanreotide (5 mg) was dissolved in 5 mL of deionized water.

[3] = published values; cited from earlier work

SMILES: Cc1cc(-c2ccc(/N=N/c3ccc4c(S(=O)(=O)O)cc(S(=O)(=O)O)c(N)c4c3O)c(C)c2)ccc1/N=N/c1ccc2c(S(=O)(=O)O)cc(S(=O)(=O)O)c(N)c2c1O [Evans Blue]
- relative concentration of the dye as hydrogel is added [1]: increasing concentration

SMILES: CC(C)[C@@H]1NC(=O)[C@H](CCCCN)NC(=O)[C@@H](Cc2c[nH]c3ccccc23)NC(=O)[C@H](Cc2ccc(O)cc2)NC(=O)[C@@H](NC(=O)[C@H](N)Cc2ccc3ccccc3c2)CSSC[C@@H](C(=O)N[C@H](C(N)=O)[C@@H](C)O)NC1=O [Lanreotide]
- concentration in the exterior fluid ([2]; 5 mg in 5 mL deionized water, Hydrogel #3.02 300 mg, after 25 minutes): less than 0.05 mg/mL
- concentration in the exterior fluid ([2]; 5 mg in 5 mL modified FASSIF pH 7, Hydrogel #3.02 300 mg, after 25 minutes): ~300 µg/mL

SMILES: C[C@@H](O)[C@@H]1NC(=O)[C@H](CCCCN)NC(=O)[C@@H](Cc2c[nH]c3ccccc23)NC(=O)[C@H](Cc2ccccc2)NC(=O)[C@@H](NC(=O)[C@H](N)Cc2ccccc2)CSSC[C@@H](C(=O)N[C@H](CO)[C@@H](C)O)NC1=O [Octreotide]
- concentration in the exterior fluid ([2]; 5 mg in 5 mL modified FASSIF pH 7 (start 1 mg/mL), Hydrogel #3.02 300 mg, after 10 minutes): less than 0.8 mg/mL

SMILES: CCCCCCCCCC(=O)[O-].[Na+] [Sodium caprate, sodium decanoate]
- concentration of caprate in the exterior fluid relative to initial concentration ([2]; 280 mg in 5 mL modified pH 7 FASSIF, Hydrogel #3.02 300 mg): ~1.4 times the initial concentration

SMILES: CCS(=O)(=O)O [ethanesulfonic acid]
- pKa [3]: −1.68

SMILES: COS(=O)(=O)O [methanesulfate]
- pKa [3]: −3.4

SMILES: CCCN [propylamine]
- pKa [3]: ~10.7
